Measured values taken from ChEMBL document CHEMBL2311494, “Syntheses and evaluation of the antioxidant activity of novel methoxypsoralen derivatives” (Eur J Med Chem, 2013).
The source made the active and inactive calls. The calls are words filed in the database; no cut-off is given here.

Experiments:
[1] = tested on: Radical scavenging activity; experiment: Antioxidant activity assessed as DPPH radical scavenging activity at 100 uM after 60 mins by spectrophotometric analysis; assay type: functional
[2] = Inhibition of soybean LOX using sodium linoleate as substrate by spectrophotometric analysis; design: species or system Glycine max
[3] = Cytotoxicity against human 1BR3 cells assessed as cell viability at 50 uM after 24 hrs by MTT assay; assay type: cell-based; conditions: read-out: Activity
[4] = Cytotoxicity against human 1BR3 cells assessed as cell viability at 1 uM after 24 hrs by MTT assay; assay type: cell-based; conditions: read-out: Activity
[5] = Cytotoxicity against human 1BR3 cells assessed as cell viability at 20 uM after 24 hrs by MTT assay; assay type: cell-based; conditions: read-out: Activity
[6] = Cytotoxicity against human 1BR3 cells assessed as cell viability at 10 uM after 24 hrs by MTT assay; assay type: cell-based; conditions: read-out: Activity
[7] = tested on: Rattus norvegicus; experiment: Antiinflammatory activity in Fischer-344 rat assessed as inhibition of carrageenan-induced paw edema at 0.01 mmol/kg, ip after 3.5 hrs relative to control; assay type: functional; conditions: Fischer-344, ip
[8] = tested on: Rattus norvegicus; experiment: Toxicity against Fischer-344 rat up to 0.1 mmol/kg, ip; assay type: organism-based; conditions: in vivo
[9] = Cytotoxicity against human 1BR3 cells assessed as cell viability at 100 uM after 24 hrs by MTT assay; assay type: cell-based; conditions: read-out: Activity
[10] = Antioxidant activity assessed as inhibition of AAPH-induced linoleic acid lipid peroxidation at 100 uM by spectrophotometric analysis; assay type: functional
[11] = tested on: Radical scavenging activity; experiment: Antioxidant activity assessed as DPPH radical scavenging activity at 100 uM after 20 mins by spectrophotometric analysis; assay type: functional
[12] = tested on: Glycine max; experiment: Inhibition of soybean LOX using sodium linoleate as substrate at 100 uM by spectrophotometric analysis

| Compound | Activity [1] | IC50 ([2]; read-out: IC50) | viability at 24 h, 50 µM [3] | viability at 24 h, 1 µM [4] | viability at 24 h, 20 µM [5] | viability at 24 h, 10 µM [6] | inhibition in vivo at 10 µmol/kg [7] | Activity [8] | viability at 24 h, 100 µM [9] | inhibition [10] | Activity [11] | IC50 [2] | inhibition [12] |
| --- | --- | --- | --- | --- | --- | --- | --- | --- | --- | --- | --- | --- | --- |
| Cc1oc2c(C)c3oc(=O)cc(C)c3cc2c1/C=C/C(=O)OC(C)(C)C | 11% | 9.4 µM | 34.6% | 67.9% | 37% | 55.6% | 46% | Non-toxic | 22.2% | 80% | 11% |  |  |
| COc1c2occc2c(C(C)=O)c2ccc(=O)oc12 | 8% | 100 µM |  |  |  |  |  |  |  | 85% | 8% |  |  |
| COc1c2ccoc2c(/C=C/C(=O)O)c2oc(=O)ccc12 | 14% | 83 µM |  |  |  |  |  | Non-toxic |  | 55% | 14% |  |  |
| COc1c2ccoc2cc2oc(=O)ccc12 [BERGAPTEN] | 14% |  | 91.7% | 105% | 99.4% | 102% |  |  | 88.9% | 49% | 14% | Not Active |  |
| COc1c2ccoc2c(Br)c2oc(=O)ccc12 | 7% | 90 µM |  |  |  |  |  |  |  | 83% | 7% |  |  |
| O=c1ccc2c(O)c3ccoc3cc2o1 [BERGAPTOL] | 36% | 41.5 µM |  |  |  |  |  |  |  | 95% | 34% |  |  |
| COc1c2occc2c(-c2ccc(/C=C/C(=O)OC(C)(C)C)cc2)c2ccc(=O)oc12 | 18% | 7.5 µM | 66.3% | 98.8% | 67.9% | 74.1% | 26.2% | Non-toxic | 46.3% | 72% | 15% |  |  |
| COc1c2occc2c(-c2ccc(/C=C/C(=O)O)cc2)c2ccc(=O)oc12 | 44% | 62 µM |  |  |  |  |  | Non-toxic |  | 12% | 41% |  |  |
| COc1c2occc2c(Br)c2ccc(=O)oc12 | 8% | 40 µM |  |  |  |  |  |  |  | 62% | 8% |  |  |
| CCOC(=O)/C=C/c1c2occc2c(OC)c2ccc(=O)oc12 | inactive |  |  |  |  |  |  | Non-toxic |  | 8% | inactive | Not Active |  |
| O=c1ccc2c(Br)c3ccoc3c(O)c2o1 | 43% | 50 µM |  |  |  |  |  |  |  | 83% | 33% |  |  |
| COc1c2ccoc2c(-c2ccc(/C=C/C(=O)OC(C)(C)C)cc2)c2oc(=O)ccc12 | 12% | 100 µM |  |  |  |  |  | Non-toxic |  | 77% | 8% |  |  |
| COc1c2ccoc2c(-c2ccc(C(=O)O)cc2)c2oc(=O)ccc12 | 19% | 60 µM |  |  |  |  |  | Non-toxic |  | 66% | 22% |  |  |
| Cc1oc2c(C)c3oc(=O)cc(C)c3cc2c1-c1ccc(/C=C/C(=O)O)cc1 | inactive |  |  |  |  |  |  | Non-toxic |  | 84% | inactive |  | 13% |
| Cc1oc2c(C)c3oc(=O)cc(C)c3cc2c1/C=C/C(=O)O | 11% |  |  |  |  |  |  | Non-toxic |  | 73% | 11% |  | 9% |
| COc1ccc2c(c1)c(CC(=O)O)c(C)n2C(=O)c1ccc(Cl)cc1 [INDOMETHACIN] |  |  |  |  |  |  | 47% | Non-toxic |  |  |  |  |  |
| CCOC(=O)/C=C/c1c2ccoc2c(OC)c2oc(=O)ccc12 | 6% | 75 µM |  |  |  |  |  | Non-toxic |  | 83% | 5% |  |  |
